Source: ChEMBL document CHEMBL3885881, “DrugMatrix”

Species: Rattus norvegicus
Assay: DrugMatrix - Regimen: Daily Repeat
Format: toxicity, organism-based, Sprague-Dawley
Set-up: regimen Daily Repeat, gender Male, age 6-8 weeks
Details: in vivo, po, route oral GAVAGE, vehicle .5 % CMC; for BASOPHIL / EOSINOPHIL / ERYTHROCYTE COUNT / HEMATOCRIT / LEUKOCYTE COUNT / LYMPHOCYTE / MEAN CORPUSCULAR HEMOGLOBIN / MEAN CORPUSCULAR HEMOGLOBIN CONCENTRATION / MEAN CORPUSCULAR VOLUME / MONOCYTE / NEUTROPHIL / PLATELET COUNT: tissue Blood; for ALANINE AMINOTRANSFERASE / ALBUMIN / ALKALINE PHOSPHATASE / ASPARTATE AMINOTRANSFERASE / BLOOD UREA NITROGEN / CHLORIDE / CHOLESTEROL / CREATININE / GLUCOSE / PHOSPHORUS / POTASSIUM / TOTAL BILIRUBIN / TOTAL PROTEIN: tissue Plasma
[1] = 0 mg/kg, 72 h, dose level Control, time 3 day
[2] = 0 mg/kg, 120 h, dose level Control, time 5 day
[3] = 10 mg/kg, 72 h, dose level Low, time 3 day
[4] = 10 mg/kg, 120 h, dose level Low, time 5 day
[5] = 52 mg/kg, 72 h, dose level High, time 3 day
[6] = 52 mg/kg, 120 h, dose level High, time 5 day

With `CNCCC(Oc1ccc(C(F)(F)F)cc1)c1ccccc1` (configuration not stated) [FLUOXETINE] the BASOPHIL [1] was 0%, the EOSINOPHIL [1] was 0% and the “ERYTHROCYTE COUNT” value [1] was 6.34 x10E6/uL. The HEMATOCRIT [1] was 37.62%, the “LEUKOCYTE COUNT” value [1] was 11.18 x10E3/uL and the LYMPHOCYTE [1] was 87.5%. For the same molecule, the “MEAN CORPUSCULAR HEMOGLOBIN” value [1] was 23.48 pg, the “MEAN CORPUSCULAR HEMOGLOBIN CONCENTRATION” value [1] was 39.5 G/DL and the “MEAN CORPUSCULAR VOLUME” value [1] was 59.45 fL. The MONOCYTE [1] was 1.67%, the NEUTROPHIL [1] was 10.83% and the “PLATELET COUNT” value [1] was 1074.83 x10E3/uL. For the same molecule, the “ALANINE AMINOTRANSFERASE” value [1] was 36.5 u/L, the ALBUMIN [1] was 3.9 G/DL and the “ALKALINE PHOSPHATASE” value [1] was 370.17 u/L. The “ASPARTATE AMINOTRANSFERASE” value [1] was 63.17 u/L, the “BLOOD UREA NITROGEN” value [1] was 16.83 mg/dL and the CHLORIDE [1] was 99.33 MEQ/L. It also gave a CHOLESTEROL [1] of 64.33 mg/dL, a CREATININE [1] of 0.55 mg/dL and a GLUCOSE [1] of 173.5 mg/dL. The PHOSPHORUS [1] was 10.08 mg/dL, the POTASSIUM [1] was 6.23 MEQ/L and the “TOTAL BILIRUBIN” value [1] was 0.52 mg/dL. For the same molecule, the “TOTAL PROTEIN” value [1] was 6.35 G/DL, the BASOPHIL [2] was 0% and the EOSINOPHIL [2] was 0.17%. For the same molecule, the “ERYTHROCYTE COUNT” value [2] was 6.12 x10E6/uL, the HEMATOCRIT [2] was 37.08% and the “LEUKOCYTE COUNT” value [2] was 11.87 x10E3/uL. The LYMPHOCYTE [2] was 83.33%, the “MEAN CORPUSCULAR HEMOGLOBIN” value [2] was 24.25 pg and the “MEAN CORPUSCULAR HEMOGLOBIN CONCENTRATION” value [2] was 39.97 G/DL. For the same molecule, the “MEAN CORPUSCULAR VOLUME” value [2] was 60.65 fL, the MONOCYTE [2] was 1.5% and the NEUTROPHIL [2] was 15%. For the same molecule, the “PLATELET COUNT” value [2] was 1042.83 x10E3/uL, the “ALANINE AMINOTRANSFERASE” value [2] was 46 u/L and the ALBUMIN [2] was 3.82 G/DL. For the same molecule, the “ALKALINE PHOSPHATASE” value [2] was 369.5 u/L, the “ASPARTATE AMINOTRANSFERASE” value [2] was 65 u/L and the “BLOOD UREA NITROGEN” value [2] was 16.33 mg/dL. For the same molecule, the CHLORIDE [2] was 100.67 MEQ/L, the CHOLESTEROL [2] was 57.17 mg/dL and the CREATININE [2] was 0.53 mg/dL. For the same molecule, the GLUCOSE [2] was 163.33 mg/dL, the PHOSPHORUS [2] was 9.53 mg/dL and the POTASSIUM [2] was 6.27 MEQ/L. The “TOTAL BILIRUBIN” value [2] was 0.55 mg/dL, the “TOTAL PROTEIN” value [2] was 6.32 G/DL and the BASOPHIL [3] was 0%. For the same molecule, the EOSINOPHIL [3] was 0%, the “ERYTHROCYTE COUNT” value [3] was 6.11 x10E6/uL and the HEMATOCRIT [3] was 38.43%. For the same molecule, the “LEUKOCYTE COUNT” value [3] was 11.83 x10E3/uL, the LYMPHOCYTE [3] was 84.67% and the “MEAN CORPUSCULAR HEMOGLOBIN” value [3] was 24.53 pg. The “MEAN CORPUSCULAR HEMOGLOBIN CONCENTRATION” value [3] was 39 G/DL, the “MEAN CORPUSCULAR VOLUME” value [3] was 62.8 fL and the MONOCYTE [3] was 1.67%. For the same molecule, the NEUTROPHIL [3] was 13.67%, the “PLATELET COUNT” value [3] was 1383.67 x10E3/uL and the “ALANINE AMINOTRANSFERASE” value [3] was 32.67 u/L. The ALBUMIN [3] was 4 G/DL, the “ALKALINE PHOSPHATASE” value [3] was 373.67 u/L and the “ASPARTATE AMINOTRANSFERASE” value [3] was 53 u/L. The “BLOOD UREA NITROGEN” value [3] was 15.67 mg/dL, the CHLORIDE [3] was 99.33 MEQ/L and the CHOLESTEROL [3] was 78 mg/dL. It also gave a CREATININE [3] of 0.5 mg/dL, a GLUCOSE [3] of 162 mg/dL and a PHOSPHORUS [3] of 11 mg/dL. The POTASSIUM [3] was 5.93 MEQ/L, the “TOTAL BILIRUBIN” value [3] was 0.33 mg/dL and the “TOTAL PROTEIN” value [3] was 6.6 G/DL. The BASOPHIL [4] was 0%, the EOSINOPHIL [4] was 0.33% and the “ERYTHROCYTE COUNT” value [4] was 6.65 x10E6/uL. The HEMATOCRIT [4] was 39.33%, the “LEUKOCYTE COUNT” value [4] was 11.3 x10E3/uL and the LYMPHOCYTE [4] was 91%. The “MEAN CORPUSCULAR HEMOGLOBIN” value [4] was 23.1 pg, the “MEAN CORPUSCULAR HEMOGLOBIN CONCENTRATION” value [4] was 39.1 G/DL and the “MEAN CORPUSCULAR VOLUME” value [4] was 59.13 fL. The MONOCYTE [4] was 0.67%, the NEUTROPHIL [4] was 8% and the “PLATELET COUNT” value [4] was 1162.33 x10E3/uL. For the same molecule, the “ALANINE AMINOTRANSFERASE” value [4] was 35 u/L, the ALBUMIN [4] was 3.83 G/DL and the “ALKALINE PHOSPHATASE” value [4] was 381 u/L. For the same molecule, the “ASPARTATE AMINOTRANSFERASE” value [4] was 55 u/L, the “BLOOD UREA NITROGEN” value [4] was 13.67 mg/dL and the CHLORIDE [4] was 97.67 MEQ/L. It also gave a CHOLESTEROL [4] of 67.67 mg/dL, a CREATININE [4] of 0.57 mg/dL and a GLUCOSE [4] of 169 mg/dL. For the same molecule, the PHOSPHORUS [4] was 12.13 mg/dL, the POTASSIUM [4] was 6.2 MEQ/L and the “TOTAL BILIRUBIN” value [4] was 0.43 mg/dL. The “TOTAL PROTEIN” value [4] was 6.3 G/DL, the BASOPHIL [5] was 0% and the EOSINOPHIL [5] was 0.33%. For the same molecule, the “ERYTHROCYTE COUNT” value [5] was 6.76 x10E6/uL, the HEMATOCRIT [5] was 40.83% and the LYMPHOCYTE [5] was 90%. The “MEAN CORPUSCULAR HEMOGLOBIN” value [5] was 24.27 pg, the “MEAN CORPUSCULAR HEMOGLOBIN CONCENTRATION” value [5] was 40.07 G/DL and the “MEAN CORPUSCULAR VOLUME” value [5] was 60.57 fL. For the same molecule, the MONOCYTE [5] was 1%, the NEUTROPHIL [5] was 8.67% and the “PLATELET COUNT” value [5] was 1353.67 x10E3/uL. For the same molecule, the “ALANINE AMINOTRANSFERASE” value [5] was 23.67 u/L, the ALBUMIN [5] was 3.93 G/DL and the “ALKALINE PHOSPHATASE” value [5] was 317 u/L. For the same molecule, the “ASPARTATE AMINOTRANSFERASE” value [5] was 55.67 u/L, the “BLOOD UREA NITROGEN” value [5] was 14.67 mg/dL and the CHLORIDE [5] was 97.67 MEQ/L. For the same molecule, the CHOLESTEROL [5] was 88.33 mg/dL, the CREATININE [5] was 0.63 mg/dL and the GLUCOSE [5] was 135.67 mg/dL. For the same molecule, the POTASSIUM [5] was 6.83 MEQ/L, the “TOTAL BILIRUBIN” value [5] was 0.47 mg/dL and the BASOPHIL [6] was 0%. The EOSINOPHIL [6] was 0%, the “ERYTHROCYTE COUNT” value [6] was 7.1 x10E6/uL and the HEMATOCRIT [6] was 41.93%. The “LEUKOCYTE COUNT” value [6] was 12.47 x10E3/uL, the LYMPHOCYTE [6] was 88.67% and the “MEAN CORPUSCULAR HEMOGLOBIN” value [6] was 23.53 pg. The “MEAN CORPUSCULAR HEMOGLOBIN CONCENTRATION” value [6] was 39.7 G/DL, the “MEAN CORPUSCULAR VOLUME” value [6] was 59.33 fL and the MONOCYTE [6] was 0.33%. The NEUTROPHIL [6] was 11%, the “PLATELET COUNT” value [6] was 1164.33 x10E3/uL and the “ALANINE AMINOTRANSFERASE” value [6] was 37 u/L. For the same molecule, the ALBUMIN [6] was 3.8 G/DL, the “ALKALINE PHOSPHATASE” value [6] was 263.33 u/L and the “ASPARTATE AMINOTRANSFERASE” value [6] was 65.67 u/L. For the same molecule, the “BLOOD UREA NITROGEN” value [6] was 13.67 mg/dL, the CHLORIDE [6] was 98.33 MEQ/L and the CHOLESTEROL [6] was 79.67 mg/dL. For the same molecule, the CREATININE [6] was 0.6 mg/dL, the GLUCOSE [6] was 142.33 mg/dL and the PHOSPHORUS [6] was 12.27 mg/dL. The POTASSIUM [6] was 6.23 MEQ/L, the “TOTAL BILIRUBIN” value [6] was 0.4 mg/dL and the “TOTAL PROTEIN” value [6] was 6.3 G/DL.
